Results taken from paper PMC7125190, “Native/citrullinated LL37-specific T-cells help autoantibody production in Systemic Lupus Erythematosus” (Scientific Reports, 2020).

Test system: pDCs
Assay: Stimulation of pDCs (IFN-α ELISA)
Format: cell-based
Details: peptide premixed with human genomic DNA 10 µg/mL, 24 hours, Fig. S4B
From the text: Buffy coats of HD were from Centro Trasfusionale, Policlinico Umberto I, Rome, IT. After separation of mononuclear cells by Ficoll centrifugation, pDCs were purified as described[9],[10], by using the Diamond Plasmacytoid Dendritic Cell Isolation Kit (Miltenyi Biotec) to obtain 99% purity.
Antibodies and reagents for flow cytometry, confocal microscopy and immunohistochemistry Antibodies to CD4, CD8, CD3, conjugated with various fluorochromes [FITC, phycoerythrin (PE), peridinin-chlorophyll-protein (PerCp), allophycocyanin (APC), PE-Cy7] were from BD Biosciences or eBiosciences (San Diego, CA). For further LL37-specific T-cell characterization, FITC-, APC-, PE-, PerCp-, PerCpCy5.5-, APC-Cy7-, AlexaFluor488-conjugated CCR6, -CLA, -CXCR5 (FAB190), PD1, -ICOS, -CD38, CD19, CD20, CD27, CD138 antibodies were purchased from BD Biosciences, eBiosciences, Novus Biologicals (Littleton, CO), R&D (Minneapolis, MN), Invitrogen Life Technologies. […]
Purified pDCs were seeded into 96-well round-bottom plates at 3.5/5 × 10^4 cells per well in 200 μl RPMI 1640 (GIBCO), supplemented with 15% fetal calf serum (FCS), 1% Hepes and 1% sodium piruvate. […] IFN-α in supernatants was measured by enzyme linked immunosorbent assay (ELISA) (MabTech, France) after 24 hours. […]

LLGDFFR(cit)KSKEKIGKEFKR(cit)IVQR(cit)IKDFLR(cit)NLVPR(cit)TES [cit-LL37, citrullinated LL37 (citrullinated at all five arginin positions)]
adjuvant activity for DCs: completely devoid of adjuvant activity for DCs
